Consider four compounds from patent publication US10280134B1, “Potent cytotoxic agent against human hepatocellular carcinoma cell line based on 2-aryl hydrazonopropanal pharmacophore” (King Abdulaziz University, priority 2018, dated 2019).

Series [1] concerns BJ1 (Normal Skin Fibroblast). Briefly: MTT cytotoxicity assay on normal human fibroblast cell line BJ1. It is filed as cell-based. The following applies: for Remarks (% lethality at 100 ppm): BJ1 normal skin fibroblast, 48 hrs; for IC50 / IC90: Homo sapiens, Skin fibroblast, 48 h; for IC50: read-out: IC50: Lethal concentration of the sample which causes the death of 50% of cells in 48 hrs; for IC90: read-out: IC90: Lethal concentration of the sample which causes the death of 90% of cells in 48 hrs. The procedure: The activity of the test compounds on a non-cancerous, normal human fibroblast cell line, BJ1, was assessed by the mitochondrial dependent reduction of yellow MTT (3-(4,5-dimethylthiazol-2-yl)-2,5-diphenyl tetrazolium bromide) to purple formazan; Mosmann T. Rapid colorimetric assays for cellular growth and survival: Application to proliferation and cytotoxicity assays. J Immunol Methods.
All procedures were done in a sterile area using a Laminar flow cabinet biosafety class II level (Baker, SG4031NT, Sanford, Me., USA).
(§1) Cells were batch cultured for 10 days, then seeded at concentration of 10×10^3 cells/well in fresh complete growth medium in 96-well microtiter plastic plates at 37° C. for 24 h under 5% CO2 using a water jacketed Carbon dioxide incubator (Sheldon, TC2323, Cornelius, Oreg., USA). […] To stop the reaction and dissolving the formed crystals, 200 μL of 10% Sodium dodecyl sulphate (SDS) in deionized water was added to each well and incubated overnight at 37° C.
(§2) A statistical significance was tested between samples and negative control (cells with vehicle) using independent t-test by SPSS 11 program. DMSO is the vehicle used for dissolution of plant extracts and its final concentration on the cells was less than 0.2%. The percentage of change in viability was calculated according to the formula: ((Reading of extract/Reading of negative control)−1)×100.
Data Analysis of Cytotoxic Activity Test. Sample Testing Against the Normal Human Epithelial Cell Line: BJ1 (Normal Skin Fibroblast).
(In general: Tetrazolium dyes change colour on reduction, which living cells bring about.)

Series [2] deals with hepatocellular carcinoma cell line HEPG2. Briefly: MTT cytotoxicity assay on human hepatocellular carcinoma cell line HePG2. It is filed as cell-based. The following applies: for Remarks (% lethality at 100 ppm): HEPG2, at 100 ppm; for IC50 / IC90: Homo sapiens; for IC90: read-out: IC90: Lethal concentration of the sample which causes the death of 90% of cells in 48 hrs. The method, then:
Cell viability was assessed by the mitochondrial dependent reduction of yellow MTT (3-(4,5-dimethylthiazol-2-yl)-2,5-diphenyl tetrazolium bromide) to purple formazan; Mossman, et al., id.
All procedures were done in a sterile area using a Laminar flow cabinet biosafety class II level (Baker, SG403INT, Sanford, Me., USA).
as §1, §2
Samples Tested Against the Human Tumor Cell Line(s): HePG 2 a Human Hepatocellular Carcinoma Cell Line.

[3] abbreviates: HEPG2, MTT, 48 hrs, 100 to 0.78 μg/ml, read-out: IC50: Lethal concentration of the sample which causes the death of 50% of cells in 48 hrs.
Where [4] appears, read: HEPG2, MTT, 48 hrs, 100 to 0.78 μg/ml.

Converted amounts (≈) assume the structure as drawn. Where two headings read alike, the source gives them in different places.

In the case of `COC(=O)c1ccccc1N/N=C(\C=O)C(=O)c1ccccc1` [Compound 1], the “Remarks (% lethality at 100 ppm)” value in series [1] was found to be 41.5% at 100 ppm; in series [2] (48 hrs) it was 95.3% at 100 ppm. Also, the “safety on normal human cell line (in words)” value in series [1] (normal human epithelial cell line (BJ1)) is “substantially safe”. In series [2] (setting [3]), the IC50 amounted to 45.5 µg/mL. Besides, the IC90 in series [2] (setting [4]) was determined as 77.3 µg/mL (≈ 249 µM).

For `COC(=O)c1ccccc1N/N=C(\C=O)C(C)=O` [Compound 2], the “Remarks (% lethality at 100 ppm)” value in series [1] and in series [2] (48 hrs) was 100% at 100 ppm in each case. Further, the values for the IC50 in series [1] and in series [2] (setting [3]) were 16.9 µg/mL (≈ 68.1 µM) and 15.7 µg/mL, respectively. The results for the IC90 in series [1] and in series [2] (setting [4]) were 29.1 µg/mL (≈ 117 µM) and 28.3 µg/mL (≈ 114 µM), respectively.

For the compound `COC(=O)c1ccccc1N/N=C(\C=O)C(=O)c1cccs1` [Compound 3], the “Remarks (% lethality at 100 ppm)” value in series [1] is on record as 80% at 100 ppm; in series [2] (48 hrs), 100% at 100 ppm. In addition, the IC50 in series [1] was determined as 61 µg/mL (≈ 193 µM); in series [2] (setting [3]) it was 14.7 µg/mL. In addition, the IC90 turned out to be 105 µg/mL (≈ 332 µM) in series [1] and 26 µg/mL (≈ 82.2 µM) in series [2] (setting [4]).

Regarding `COc1cccc2c1C(=O)c1c(O)c3c(c(O)c1C2=O)C[C@@](O)(C(=O)CO)C[C@@H]3O[C@H]1C[C@H](N)[C@H](O)[C@H](C)O1` [Doxorubicin, doxorubicin, reference compound], the IC50 in series [2] (HEPG2, positive control, Table 3, Mw = 579.99, read-out: IC50 (positive control)) turned out to be 37.8 µM.
